Test results as given in US20080311657A1, “Killing Human Lymphoma and Leukemia Cancer Cells and Tcr-Activated Normal Human Cells By Dopamine D1r Agonists” (priority 2005, published 2008).
“And” between values parts separate entries of the source, which are not always exact repeats. Equal values may be shown once.

Legend:
β adrenoceptors = conditions: cited from earlier work
D2-like receptors = conditions: cited from earlier work
muscarinic receptors = conditions: cited from earlier work
5HT2 receptors = conditions: cited from earlier work
[1] = test system: Human Chronic Myeloid Leukemia (CML, K-562); assay: Cell death by LDH release (CytoTox 96); type: cell-based
Experimental: (§1) Cell viability was tested afterwards.
(§2) Tables 3 and 4 show results of experiments designed primarily for studying the kinetics of the effect (herein fenoldopam hydrobromide was tested only at a concentration range of 10^−4 M-10^−6 M), and indicate that already after 1 minute of fenoldopam hydrobromide addition, there is an increased LDH. Yet, the extent of death increased gradually with time (10, 30 and 60 minutes), and after 1 hour the cancer cells released dramatic levels of LDH, indicating massive cell death.

[2] = test system: Human T-Cell Lymphoma (HuT-78); assay: Cell death by LDH release (CytoTox 96); type: cell-based
Experimental: as §1, §2

5HT1 receptors = conditions: cited from earlier work
[3] = test system: Human Burkitt's B-Cell Lymphoma (Daudi); assay: Cell death by LDH release (CytoTox 96); type: cell-based; conditions: 1 hour
Experimental: as §1

α1 adrenoceptors = conditions: cited from earlier work
α2-adrenoceptors = conditions: cited from earlier work

Oc1ccc(C2CNCCc3c2cc(O)c(O)c3Cl)cc1 (stereo not shown) [Fenoldopam]
Affinity, in words (β adrenoceptors): no significant affinity
Affinity, in words (D2-like receptors): no significant affinity
Affinity, in words (muscarinic receptors): no significant affinity
Affinity, in words (5HT2 receptors): no significant affinity
Release of LDH (OD), Average OD ([1]; Fenoldopam 10^−4M 1 Min): 1.081 OD
Release of LDH (OD), OD Duplicates ([1]; Fenoldopam 10^−4M 1 Min): 1.081 OD
Release of LDH (OD), Average OD ([1]; Fenoldopam 10^−4M 10 Min): 0.863 OD
Release of LDH (OD), OD Duplicates ([1]; Fenoldopam 10^−4M 10 Min): 0.868 OD and 0.858 OD
Release of LDH (OD), Average OD ([1]; Fenoldopam 10^−4M 30 Min): 2.7755 OD
Release of LDH (OD), OD Duplicates ([1]; Fenoldopam 10^−4M 30 Min): 2.737 OD and 2.814 OD
Release of LDH (OD), Average OD ([1]; Fenoldopam 10^−4M 60 Min): 2.27 OD
Release of LDH (OD), OD Duplicates ([1]; Fenoldopam 10^−4M 60 Min): 2.733 OD and 1.807 OD
Release of LDH (OD), Average OD ([1]; Fenoldopam 10^−5M 60 Min): 2.9645 OD
Release of LDH (OD), OD Duplicates ([1]; Fenoldopam 10^−5M 60 Min): 2.907 OD and 3.022 OD
Release of LDH (OD), Average OD ([1]; Fenoldopam 10^−6M 60 Min): 0.7625 OD
Release of LDH (OD), OD Duplicates ([1]; Fenoldopam 10^−6M 60 Min): 0.759 OD and 0.766 OD
Release of LDH (OD), Average OD ([2]; Fenoldopam 10^−4M 1 Min): 0.8135 OD
Release of LDH (OD), OD Duplicates ([2]; Fenoldopam 10^−4M 1 Min): 0.786 OD and 0.841 OD
Release of LDH (OD), Average OD ([2]; Fenoldopam 10^−4M 10 Min): 1.4355 OD
Release of LDH (OD), Average OD ([2]; Fenoldopam 10^−4M 30 Min): 3.087 OD
Release of LDH (OD), OD Duplicates ([2]; Fenoldopam 10^−4M 30 Min): 3.015 OD and 3.159 OD
Release of LDH (OD), Average OD ([2]; Fenoldopam 10^−4M 60 Min): 2.8775 OD
Release of LDH (OD), OD Duplicates ([2]; Fenoldopam 10^−4M 60 Min): 2.688 OD and 3.067 OD
Release of LDH (OD), Average OD ([2]; Fenoldopam 10^−5M 60 Min): 2.9465 OD
Release of LDH (OD), OD Duplicates ([2]; Fenoldopam 10^−5M 60 Min): 2.907 OD and 3.022 OD
Release of LDH (OD), Average OD ([2]; Fenoldopam 10^−6M 60 Min): 0.7625 OD
Release of LDH (OD), OD Duplicates ([2]; Fenoldopam 10^−6M 60 Min): 0.759 OD and 0.766 OD
Affinity, in words (5HT1 receptors): no significant affinity
LDH Release (OD), Average ([3]; Fenoldopam 10^−4M): 0.9595 OD
LDH Release (OD), OD Duplicates ([3]; Fenoldopam 10^−4M): 0.961 OD and 0.958 OD
LDH Release (OD), Average ([3]; Fenoldopam 10^−5M): 1.0025 OD
LDH Release (OD), OD Duplicates ([3]; Fenoldopam 10^−5M): 0.99 OD and 1.015 OD
LDH Release (OD), Average ([3]; Fenoldopam 10^−6M): 0.526 OD
LDH Release (OD), OD Duplicates ([3]; Fenoldopam 10^−6M): 0.525 OD and 0.527 OD
LDH Release (OD), Average ([3]; Fenoldopam 10^−7M): 0.5365 OD
LDH Release (OD), OD Duplicates ([3]; Fenoldopam 10^−7M): 0.55 OD and 0.523 OD
LDH Release (OD), Average ([3]; Fenoldopam 10^−8M): 1.339 OD
LDH Release (OD), OD Duplicates ([3]; Fenoldopam 10^−8M): 1.316 OD and 1.362 OD
LDH Release (OD), Average ([3]; Fenoldopam 10^−9M): 0.899 OD
LDH Release (OD), OD Duplicates ([3]; Fenoldopam 10^−9M): 0.903 OD and 0.895 OD
Concentration of maximal killing ([3]; LDH release, Table 2): 10^−8 M
Affinity, in words (α1 adrenoceptors): no significant affinity
Affinity, in words (α2-adrenoceptors): moderate affinity
